Source: publication PMC9414910, “Optimized ^68Ga-Labeled Urea-Based PSMA-Targeted PET Tracers for Prostate Cancer” (Pharmaceuticals, 2022)

Tests used:
[1] = Blood pharmacokinetics in male ICR mice; assay type: in vivo; conditions: 7.4 MBq i.v., two-compartment model
Protocol: Injection of novel radiotracers or [68Ga]Ga-PSMA-617 or [68Ga]Ga-PSMA-11 […]
mice (5 mice/group), and the blood sample (5 μL) of each mouse was collected by cutting down the tail end at different time points post injection. The radioactivity of blood samples were measured by a γ-counter and the pharmacokinetics data was calculated using the WinNonlin software.
Figure S3. Time-activity curves of the blood samplesafter injection of 7.4 MBq of [68Ga]Ga-PSMA-4PY (A), [68Ga]Ga-PSMA-Q (B),[68Ga]Ga-PSMA-P (C), [68Ga]Ga-PSMA-617 (D), [68Ga]Ga-PSMA-11 (E), [68Ga]Ga-PSMA-Q-1 (F), [68Ga]Ga-PSMA-Q-2 (G) and [68Ga]Ga-PSMA-Q-3 (H).
(1 picture or pasted object on this page, not shown here)

22Rv1 tumor-bearing mice = experiment: Biodistribution in 22Rv1 tumor-bearing mice; conditions: for Uptake Blood, Mean / Uptake Bone, Mean / Uptake Heart, Mean / Uptake Kidney, Mean / Uptake Liver, Mean / Uptake Lung, Mean / Uptake Muscle, Mean / Uptake Spleen, Mean / Uptake Tumor (22Rv1), Mean: 0.74 MBq, n = 3; for Clearance profile in the kidneys: within 60 min p.i.
Protocol: (§1) The animal studies were approved by the institutional animal care and use committee of the Chinese PLA General Hospital. Healthy male ICR mice were injected with either a novel radiotracer (37 MBq in 150 μL) or saline (150 μL) for the radiotoxicity evaluation. […] Biodistribution and micro-PET studies were performed on 22Rv1 and PC-3 xenograft models, and 2-PMPA was used as the PSMA blocker (all details are shown in the Supplementary Materials).
BALB/c nude mice (male, 4-6 weeks) were inoculated subcutaneously with […]
100 mm3, the mice underwent biodistribution study and Micro-PET imaging.
The 22Rv1 tumor-bearing mice were injected with each novel radiotracer or […]
[…] Mice were sacrificed at different time points p.i. (10 min, 30 min, 60 min), tumors and interested organs were harvested, weighed and measured by a γ-counter, the results were expressed as the percentage of injected dose per gram (ID%/g).
Table S1. Uptake values for ex vivo tissues of [ 68Ga]Ga-PSMA-Q (0.74 MBq/mice) in 22Rv1 tumor-bearing mice (10, 30 and 60 min p.i., n = 3/time point).

[2] = Partition coefficient, octanol–water system; assay type: physicochemical; conditions: octanol–water (v/v = 1:1), n = 3
Protocol: The partition coefficient of each novel radiotracer was determined using an octanol–water system (v/v = 1:1). The in vitro stability was determined using two systems (PBS and 5% BSA). The Ki value was measured by the NAALADase assay. The 22Rv1 and PC-3 cell lines were used for the cell-binding study and establishment of the tumor-bearing model (detailed information is shown in the Supplementary Materials).
PBS) and reported as log p ± SD. […]

22Rv1 tumors = experiment: Micro-PET imaging in 22Rv1 tumor-bearing mice; assay type: in vivo; conditions: 22Rv1 tumor, 60 min p.i., 7.4 MBq
Protocol: as §1
Table S9. Tumor-to-mu scle (T/M) ratio and tumor- to-kidney (T/K) rati o of radiotracers at 60 min p.i.
The Mice bearing 22Rv1 and PC-3 (n = 3/group) xenograft tumors were […]
Co-injection with 2-PMPA (50 μ g) and each novel tracer (7.4 MBq in 150 μL) was used for blocking. Then the mice were anesthetized with 3% (v/v) isoflurane and underwent Micro-PET scans with continuous 1% (v/v) isoflurane. The images were acquired at 60 min p.i.. In comparison, […]
into another group of mice (n = 3), and Micro-PET schedule was performed as […]
Imaging was performed on a Super Nova PET/CT scanner using a 100-mm-transaxial field of view for PET and 110-mm for CT.
Three-dimensional ordered-subsets expectation maximization reconstruction

22Rv1 cells (mild PSMA+) = experiment: Cell uptake / binding in 22Rv1 cells; assay type: cell-based, human; conditions: 60 min incubation, 37 °C
Source text: Cell lines were kindly provided by the stem cell bank of the Chinese Academy of Sciences. The human prostate cancer epithelial cell lines 22Rv1 (mild PSMA+) and PC-3 (with no PSMA receptor) were used to evaluate the specific cell-binding affinity of the radiotracers, and the results were expressed as percentages of injected activity, IA%/10^6.
Cell Lines and Culture Condition
Cell lines were kindly provided by the stem cell bank, the Chinese Academy of Sciences. The human prostate cancer cell lines 22Rv1 ( mild PSMA positive) and PC3 (PSMA negative) were cultured in RPMI 1640 medium or F12K medium (CORNING, America), supplemented with 10% Fetal Bovine Serum
(GIBCO, The Netherlands) and 1% penicillin-streptomycin (CORNING, America) in a humidified incubator at 37 °C under 5% CO2. Each cell line was passaged when it was at around 80-90% confluence, and harvested using trypsin-ethylenediaminetetraacetic acid (trypsin-EDTA; 0.25% trypsin, 0.02% EDTA, all from KeyGEN BioTECH).
Cells were seeded separately in 24 well plates (1 x 10^5 cells in 1 mL medium/well) and incubated overnight, the medium was changed 2 h before the experiment. For the binding experiments, cells were incubated with novel […]
min, 30 min and 60 min (6 wells/time point). After incubation, the medium was removed and the cells were washed twice with ice-cold phosphate-buffered saline (0.5 mL). Finally, the cells were lysed by NaOH (0.5 M, 0.5 mL). Coincubation of 2-(phosphonomethyl) pentane-1,5-dioic acid […]
(2-PMPA) solution (2 μg/well) and each radiotracer for 60 min was conducted as the blocking experiment. The radioactivity of cells was measured by a γ-counter. The studies were performed in triplicate and the results were reported as the percentage injected activity (IA%/10^6 cells). […]

| Structure (SMILES) | Elimination half-life [1] [min] | Uptake Blood, Mean (22Rv1 tumor-bearing mice; 10 min p.i.) [ID%/g] | Uptake Bone, Mean (22Rv1 tumor-bearing mice; 10 min p.i.) [ID%/g] | Uptake Heart, Mean (22Rv1 tumor-bearing mice; 10 min p.i.) [ID%/g] | Uptake Kidney, Mean (22Rv1 tumor-bearing mice; 10 min p.i.) [ID%/g] | Uptake Liver, Mean (22Rv1 tumor-bearing mice; 10 min p.i.) [ID%/g] | Uptake Lung, Mean (22Rv1 tumor-bearing mice; 10 min p.i.) [ID%/g] | Uptake Muscle, Mean (22Rv1 tumor-bearing mice; 10 min p.i.) [ID%/g] | Uptake Spleen, Mean (22Rv1 tumor-bearing mice; 10 min p.i.) [ID%/g] | Uptake Tumor (22Rv1), Mean (22Rv1 tumor-bearing mice; 10 min p.i.) [ID%/g] | Uptake Blood, Mean (22Rv1 tumor-bearing mice; 30 min p.i.) [ID%/g] | Uptake Bone, Mean (22Rv1 tumor-bearing mice; 30 min p.i.) [ID%/g] | Uptake Kidney, Mean (22Rv1 tumor-bearing mice; 30 min p.i.) [ID%/g] | Uptake Liver, Mean (22Rv1 tumor-bearing mice; 30 min p.i.) [ID%/g] | Uptake Lung, Mean (22Rv1 tumor-bearing mice; 30 min p.i.) [ID%/g] | Uptake Muscle, Mean (22Rv1 tumor-bearing mice; 30 min p.i.) [ID%/g] | Uptake Spleen, Mean (22Rv1 tumor-bearing mice; 30 min p.i.) [ID%/g] | Uptake Tumor (22Rv1), Mean (22Rv1 tumor-bearing mice; 30 min p.i.) [ID%/g] | Uptake Blood, Mean (22Rv1 tumor-bearing mice; 60 min p.i.) [ID%/g] | Uptake Bone, Mean (22Rv1 tumor-bearing mice; 60 min p.i.) [ID%/g] | also measured |
| --- | --- | --- | --- | --- | --- | --- | --- | --- | --- | --- | --- | --- | --- | --- | --- | --- | --- | --- | --- | --- | --- |
| O=C([O-])CN1CCN(CC(=O)[O-])CCN(CC(=O)NCCCCC(=O)NC(Cc2cnc3ccccc3c2)C(=O)NCCCCC(NC(=O)NC(CCC(=O)O)C(=O)O)C(=O)O)CCN(CC(=O)O)CC1.[68Ga+3] (stereo not shown) [[^68Ga]Ga-PSMA-Q-1] | 21.17 ± 2.01 | 2.88 | 0.72 | 2.21 | 27.12 | 2.38 | 1.19 | 0.81 | 2.26 | 1.67 | 1.31 | 0.21 | 18.86 | 1.23 | 0.68 | 0.18 | 1.79 | 2.07 | 0.37 | 0.15 | Uptake Heart, Mean (22Rv1 tumor-bearing mice; 60 min p.i.): 0.54 ID%/g; Uptake Kidney, Mean (22Rv1 tumor-bearing mice; 60 min p.i.): 5.70 ID%/g; Uptake Liver, Mean (22Rv1 tumor-bearing mice; 60 min p.i.): 0.45 ID%/g; Uptake Lung, Mean (22Rv1 tumor-bearing mice; 60 min p.i.): 0.26 ID%/g; Uptake Muscle, Mean (22Rv1 tumor-bearing mice; 60 min p.i.): 0.09 ID%/g; Uptake Spleen, Mean (22Rv1 tumor-bearing mice; 60 min p.i.): 0.45 ID%/g; Uptake Tumor (22Rv1), Mean (22Rv1 tumor-bearing mice; 60 min p.i.): 2.38 ± 0.31 ID%/g; Uptake Tumor (22Rv1), Mean (22Rv1 tumor-bearing mice; 60 min p.i., listed as [68Ga]Ga-PSMA-Q-1): 2.38 ID%/g; Clearance profile in the kidneys (22Rv1 tumor-bearing mice): washed out rapidly from the kidneys; Log p pH = 7.4 [2]: −3.09 ± 0.19; SUVmax of tumor (22Rv1 tumors): 0.86 ± 0.09; Uptake in 22Rv1 cells (22Rv1 cells (mild PSMA+)): 3.38 ± 0.50 IA%/10^6 |
| O=C([O-])CN1CCN(CC(=O)[O-])CCN(CC(=O)NCc2ccc(C(=O)NC(Cc3cnc4ccccc4c3)C(=O)NCCCCC(NC(=O)NC(CCC(=O)O)C(=O)O)C(=O)O)cc2)CCN(CC(=O)O)CC1.[68Ga+3] (stereo not shown) [[^68Ga]Ga-PSMA-Q-3] | 25.72 ± 1.87 | 1.68 | 0.67 | 1.87 | 21.45 | 1.53 | 0.83 | 0.72 | 1.12 | 1.88 | 0.72 | 0.33 | 13.88 | 1.18 | 0.53 | 0.40 | 0.94 | 2.77 | 0.34 | 0.23 | Uptake Heart, Mean (22Rv1 tumor-bearing mice; 30 min p.i.): 1.29 ID%/g; Uptake Heart, Mean (22Rv1 tumor-bearing mice; 60 min p.i.): 1.11 ID%/g; Uptake Kidney, Mean (22Rv1 tumor-bearing mice; 60 min p.i.): 2.65 ID%/g; Uptake Lung, Mean (22Rv1 tumor-bearing mice; 60 min p.i.): 0.43 ID%/g; Uptake Muscle, Mean (22Rv1 tumor-bearing mice; 60 min p.i.): 0.19 ID%/g; Uptake Spleen, Mean (22Rv1 tumor-bearing mice; 60 min p.i.): 0.59 ID%/g; Uptake Tumor (22Rv1), Mean (22Rv1 tumor-bearing mice; 60 min p.i.): 3.31 ± 0.29 ID%/g; Uptake Tumor (22Rv1), Mean (22Rv1 tumor-bearing mice; 60 min p.i., listed as [68Ga]Ga-PSMA-Q-3): 3.31 ID%/g; Clearance profile in the kidneys (22Rv1 tumor-bearing mice): washed out rapidly from the kidneys; Log p pH = 7.4 [2]: −2.99 ± 0.33; SUVmax of tumor (22Rv1 tumors): 0.88 ± 0.18; Uptake in 22Rv1 cells (22Rv1 cells (mild PSMA+)): 3.31 ± 0.49 IA%/10^6 |
